Data on 5 molecules can be found in patent publication US20240197714A1, “METHODS FOR THE ADMINISTRATION OF CERTAIN VMAT2 INHIBITORS” (Neurocrine Biosciences, Inc., priority 2021, published 2024).

The nature of data set [1]: Phase 1 open-label 2-sequence crossover study, single-dose pharmacokinetics of deutetrabenazine metabolites in healthy subjects. It is filed as in vivo, human. Conditions: for AUC / Cmax / half-life: both sexes, human, oral, plasma; for AUC / Cmax: healthy subjects, single dose deutetrabenazine 24 mg, % CV in parentheses; for half-life: 24 mg; for AUC (% of Total): share of total circulating DHTBZ exposure after single dose deutetrabenazine 24 mg. The method, then: A phase 1, open-label, 2-sequence crossover study was conducted to evaluate the HTBZ PK profile following administration of valbenazine (40 mg) or deutetrabenazine (24 mg) to a total of 18 healthy male and female subjects.
Subjects received a single dose of valbenazine 40 mg on Day 1 and a single dose of deutetrabenazine 24 mg on Day 16; or received a single dose of deutetrabenazine 24 mg on Day 1 and a single dose of valbenazine 40 mg on Day 16. Valbenazine 40 mg was administered as one 40 mg capsule and deutetrabenazine 24 mg was administered as two 12 mg tablets. Study drug was administered at approximately 0800 hours, approximately 30 minutes after the start of a standard breakfast.
PK parameters were determined using non-compartmental analysis with Phoenix WinNonlin 8.3 software. The in vitro pharmacology of the deuterated HTBZ metabolites was assessed using competitive radioligand binding assays.

For data set [2] the following is noted: AUSTEDO label; likely similar in CYP2D6 poor metabolizers; cited from earlier work.
Where [3] appears, read: metabolites of AUSTEDO, approximate, read-out: half-life (converted).

Where two headings read alike, the source gives them in different places.

Regarding `[2H]C([2H])([2H])Oc1cc2c(cc1OC([2H])([2H])[2H])[C@H]1C[C@@H](O)[C@H](CC(C)C)CN1CC2` [[+]-α-DHTBZ], in data set [1], the AUC (usually concentration integrated over time) is 11 ng·h/mL, the Cmax (commonly the highest concentration seen after dosing) turned out to be 1.2 ng/mL and the “AUC (% of Total)” value came to 2%. The half-life (usually the time in which the quantity being followed falls by half) in data set [1] (setting [3]) is around 6 h.

`[2H]C([2H])([2H])Oc1cc2c(cc1OC([2H])([2H])[2H])[C@H]1C[C@H](O)[C@H](CC(C)C)CN1CC2` [[+]-β-DHTBZ, (+)-β-3-isobutyl-9,10-di(methoxy-d3)-1,3,4,6,7,11b-hexahydro-2H-pyrido[2,1-a]isoquinolin-2-ol]: in data set [1], the AUC came to 176 ng·h/mL, the Cmax is 20.4 ng/mL and the “AUC (% of Total)” value stood at 29%. Besides, the half-life in data set [1] (after deutetrabenazine administration, read-out: mean half-life (converted)) is 7.7 h. The half-life in data set [1] (setting [3]) is around 5 h.

With `[2H]C([2H])([2H])Oc1cc2c(cc1OC([2H])([2H])[2H])[C@@H]1C[C@@H](O)[C@@H](CC(C)C)CN1CC2` [[−]-β-DHTBZ, (−)-β-3-isobutyl-9,10-di(methoxy-d3)-1,3,4,6,7,11b-hexahydro-2H-pyrido[2,1-a]isoquinolin-2-ol], in data set [1], the AUC came out at 15.8 ng·h/mL, the highest concentration (Cmax) turned out to be 1.7 ng/mL and the “AUC (% of Total)” value is given as 3%. Also, the half-life in data set [1] (setting [3]) was around 8 h.

On to `[2H]C([2H])([2H])Oc1cc2c(cc1OC([2H])([2H])[2H])[C@@H]1C[C@H](O)[C@@H](CC(C)C)CN1CC2` [[−]-α-DHTBZ, (−)-α-3-isobutyl-9,10-di(methoxy-d3)-1,3,4,6,7, 11b-hexahydro-2H-pyrido[2,1-a]isoquinolin-2-ol], for which, in data set [1], the AUC came to 396 ng·h/mL, the Cmax is 32.2 ng/mL and the “AUC (% of Total)” value is reported as 66%. In addition, the half-life in data set [1] (setting [3]) was around 12 h.

For `COc1cc2c(cc1OC)[C@@H]1C[C@H](O)[C@@H](CC(C)C)CN1CC2` [α-DHTBZ], the “increase of exposure when taking a strong CYP2D6 inhibitor” value in data set [2] is “approximately 3 fold”.
